Test results taken from patent publication US20180339051A1, “COMPOSITION FOR TOPICAL APPLICATION COMPRISING DIMETHYL ISOSORBIDE, A POLYOL, AND A PHENOLIC OR POLYPHENOLIC ANTIOXIDANT” (MEDSKIN SOLUTIONS DR. SUWELACK AG, priority 2015, published 2018).

What was measured:
[1] = assay type: physicochemical
Experimental: Concretely, 10 ml of a pure solvent or a solubiliser mixture were stirred in a beaker at ambient temperature. An amount of 2 mg phenolic or polyphenolic antioxidant was dispersed in the mixture and stirred. If the mixture became clear, the addition of phenolic or polyphenolic antioxidant was repeated until the mixture remained turbid even after stirring for 10 min. The maximum solubility was calculated as a percentage by mass (wt %) based on this experiment.

pig skin biopsies = test: Skin Antioxidative Potential (SAP), ESR with test radical TEMPO, ex vivo; assay type: cell-based; settings: normalized to placebo-treated skin = 100%
Text: Skin has intrinsic antioxidative protection thanks to the many enzymatic and non-enzymatic antioxidant systems present in the epidermis. A Skin Antioxidative Potential (SAP) can be measured by ESR spectroscopy using an active test radical that is reduced by the antioxidant systems inside the epidermis and dermis. The SAP value is a quantitative ex vivo determination of the antioxidant activity inside the epidermal and dermal layers of the skin.
In contrast, if the SAP value is below 100%, the topical treatment has diminished the skin's antioxidant defense system. Topical treatments with such negative effects on the skin antioxidant system are for example application of a chemical such as detergents or physical stress such as sun exposure.
The method entails applying the composition comprising the active substance (in this case resveratrol) to pig skin biopsies and testing the antioxidative power of the active substance. The antioxidative effect is dependent on whether the active substance is absorbed into the skin.
The measurements mere carried out as follows. Skin biopsies obtained from local slaughterhouse (pig skin, 6 month old animals, external lobe of the ears) were washed, the subdermal fat was removed and the skin was cut in 2×2 cm pieces.
Emulsions made as in example 2, with or without resveratrol, and with or without a solubiliser mix (dimethyl isosorbide, 1,5-pentanediol and panthenol) were applied on the epidermal layer of the biopsies. Skin pieces were placed on a filter paper saturated with the test radical (TEMPO, 2,2,6,6-tetramethyl piperidine-N-oxyl, Sigma-Aldrich, Munich, Germany). Skin biopsies of 4 cm were taken, placed in a special ESR tissue cell and ESR spectra of the test radical were recorded in a time-course experiment.
The amplitudes of the ESR spectra were plotted against time and the obtained kinetics were fitted using a mono-exponential first order decay algorithm.
The measurements were made after penetration times of between ten minutes and four hours. All values were normalized to the placebo-treated skin. […]

| Compound | solubility in water [1] | SAP value (pig skin biopsies; penetration time 10 min) [%] | SAP value (pig skin biopsies; penetration time 30 min) [%] | SAP value (pig skin biopsies; penetration time 120 min) [%] |
| --- | --- | --- | --- | --- |
| Oc1ccc(/C=C/c2cc(O)cc(O)c2)cc1 [Resveratrol, 3,5,4′-trihydroxy-trans-stilbene] | less than 0.01 wt % |  |  |  |
| tocopherol |  | 114 ± 3 | 103 ± 6 | 100 ± 6 |
